Data: patent US6835382B2, “Ii peptide therapeutics to enhance antigen presentation” (University of Massachusetts, priority 1996, dated 2004)
Non-standard residues stand in square brackets, D forms with d. hArg = N=C(N)NCCCC[C@H](N)C(=O)O; Cit = NC(=O)NCCC[C@H](N)C(=O)O; Orn = NCCC[C@H](N)C(=O)O

Target: T1, murine E^d MHC class II allele (Mus musculus, UniProt P01904+P01915)
T1 sequence (P01904 26-255): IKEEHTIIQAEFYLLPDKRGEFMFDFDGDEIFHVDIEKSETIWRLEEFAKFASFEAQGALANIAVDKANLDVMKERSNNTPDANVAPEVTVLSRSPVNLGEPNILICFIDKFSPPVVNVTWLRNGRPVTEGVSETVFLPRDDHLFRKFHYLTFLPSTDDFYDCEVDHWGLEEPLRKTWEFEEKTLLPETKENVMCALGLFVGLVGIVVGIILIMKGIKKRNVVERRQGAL
T1 sequence (P01915 27-264 limits assumed): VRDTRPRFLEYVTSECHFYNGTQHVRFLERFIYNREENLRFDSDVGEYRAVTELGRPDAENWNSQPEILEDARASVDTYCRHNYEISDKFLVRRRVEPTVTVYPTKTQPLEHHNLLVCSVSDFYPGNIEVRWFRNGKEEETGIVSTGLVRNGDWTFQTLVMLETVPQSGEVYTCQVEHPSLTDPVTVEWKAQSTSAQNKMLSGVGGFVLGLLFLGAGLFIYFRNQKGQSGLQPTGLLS
Test: antigenic peptide prepulse assay, E^d allele (fixed APC prepulsed with HEL106-116)
Assay type: cell-based
Design: The A20 and CH27 B cell lymphoma lines express H-2^d and H-2^k alleles, respectively; endogenous in cells; host or cells: A20 B cell lymphoma (mitomycin C-treated or paraformaldehyde-fixed)
Conditions: AE peptide 64 μM; for Activity in antigenic peptide prepulse assay, E^d (baseline without AE peptide = 1.00): Table 19, prepulse 12 μM HEL106-116
Description: In a second type of assay, the “peptide prepulse assay”, the antigenic peptide is incubated with paraformaldehyde-fixed APC for 6 h. The APC are washed and incubated for 24 h with the AE101 series homolog and the T cell hybridoma specific for the antigenic peptide. After that incubation, an aliquot of the culture supernatant is transferred to a second culture to measure the relative degree of T hybridoma stimulation, as reflected in the effect of released interleukins on the growth of an interleukin-dependent, indicator cell line, as described above.
The two above described assays measure different aspects of the molecular mechanism of the AE101 series of peptides. In the “simultaneous assay”, AE101 series peptides are thought to induce the release of endogenously bound peptides and to permit the binding of the second, specific antigenic peptide which is relatively abundant in the culture fluid. The AE101 series peptides enhance antigenic peptide-specific T cell responses in simultaneous assays. In the “peptide prepulse” assay, the specific antigenic peptide becomes bound to MHC class II molecules on the surface of the fixed APC during the 6 h prepulse incubation. The effect of the AE101 series homologs is then thought to release that antigenic peptide, resulting in an apparent suppression of the immune response.
The AE101 series peptides are thought to contact the MHC class II molecules at a discrete site outside the antigenic peptide-binding groove. AE101 peptide binding to this “Ii-KEY” site is thought to induce a conformational change in the MHC class II molecules accelerating the dissociation of previously bound antigenic peptide. […] The AE101 series peptides thus inhibit antigenic peptide-specific T cell responses in the “peptide prepulse” assays.
Antigenic peptide-specific T cell activation was measured by the following procedure. Mitomycin C-treated A20 cells (A^dE^d) or CH27 cells APC (A^kE^k) were generated by incubating 5×10^6 cells/mL for 20 min at 37° C. with 0.025 mg/mL of mitomycin C (Sigma) in Dulbecco's Modified Eaglel's Medium (DMEM)/10 mM N-2(hydroxyethylpiperazine-N″[2-ethanesulfonic acid] (HEPES), followed by two washes with four volumes of DMEM-5% fetal calf serum (FCS), 10 mM HEPES. Fixed APC were generated by treating 1×10^6 cells/mL for 5 min with 0.5% paraformaldehyde in PBS (pH 7.2), followed by two washes with four volumes of DMEM-10% FCS, 10 mM HEPES. T cell hybridomas were irradiated 2200 rads before each assay.
The “peptide prepulse assay” was carried out under essentially the same conditions as described for the “simultaneous assay” with the following modifications. Fixed APC were first incubated for 6 h at 1×10^6 cells/mL in complete DMEM-5% FCS in 24-well microculture plates (1 mL/well) with antigenic peptide, followed by four washes with 10 volumes of DMEM-5% FCS. The cells were then exposed to varying concentrations of AE101 series peptide (64 μM, 16 μM, 4 μM, and 1 μM) for 24 h in the presence of the T cell hybridoma specific to the antigenic peptide. Interleukin release from these cultures was measured by proliferation of HT-2 cells to interleukins in supernatants transferred from the primary culture. Generally, a single dose of 64 μM of each AE101 series peptide was used. The baseline T cell response was measured by culturing T hybridoma cells with the antigenic peptide-prepulsed APC in the absence of AE101 series peptides.
[…] […] Paraformaldehyde-treated APC (fixed APC) expressing MHC class II molecules were incubated with antigenic peptide for 6 h (HEL106-116 for E^d and PGCC81-104 for E^k). After this incubation, the prepulsed APC were washed and cultured with T hybridoma cells and AE101 series peptides. […] The AE101 series peptide concentrations were 64 μM for E^d and 16 μM for E^k. The dilutions of supernatant taken into the HT-2 cell assay were 1:4 for Ed and 1:2 for E^k.

[1] = Table 20, prepulse 3 μM antigenic peptide, supernatant 1:2
[2] = Table 21, prepulse 24 μM antigenic peptide, supernatant 1:8

Substance	Activity in antigenic peptide prepulse assay, E^d (baseline = 1.00) [1]	Activity in antigenic peptide prepulse assay, E^d (baseline without AE peptide = 1.00) (supernatant 1:4)	further results
Ac-Y Q MKLPKSAK-NH2 [AE138]	0.73	–	–
Ac-Y Y MKLPKSAK-NH2 [AE140]	0.78	–	–
Ac-YAMKLPKSAK-NH2 [AE121]	0.53	–	–
Ac-YRM-NH2 [AE118]	–	0.68	–
Ac-YRMK-NH2 [AE117]	–	0.65	–
Ac-YRMKL hydrP KSAK-NH2 (Ac-YRMKL[hydrP]KSAK-NH2) [AE143]	–	–	Activity in antigenic peptide prepulse assay, E^d (baseline = 1.00) [2]: 0.18
Ac-YRMKL-NH2 [AE116]	–	0.80	–
Ac-YRMKLP-NH2 [AE115]	–	0.49	–
Ac-YRMKLPK-NH2 [AE113]	–	0.10	–
Ac-YRMKLPKSAK-NH2 [AE109]	0.28	0.11	Activity in antigenic peptide prepulse assay, E^d (baseline = 1.00) [2]: 0.10
Ac-Y[Cit]MKLPKSAK-NH2 [AE131]	0.69	–	Activity in antigenic peptide prepulse assay, E^d (baseline = 1.00) (Table 25, prepulse 24 μM antigenic peptide, supernatant 1:4): 0.61
Ac-Y[Orn]MKLPKSAK-NH2 [AE130]	0.79	–	–
Ac-Y[hArg]MKLPKSAK-NH2 [AE132]	0.58	–	Activity in antigenic peptide prepulse assay, E^d (baseline = 1.0) (Table 26, prepulse 24 μM antigenic peptide, supernatant 1:2): 0.82
Ac-l RMKLPK-NH2 [AE160]	–	–	Activity in antigenic peptide prepulse assay, E^d (baseline = 1.00) (Table 22, prepulse 6 μM antigenic peptide, supernatant 1:8): 0.40
YRMKLPKSAKPVSQMR [AE101]	0.25	–	–
